# Measurements published in patent publication US20250230193A1, “CYCLIC COMPOUND HAVING SELECTIVE KRAS INHIBITORY EFFECT ON HRAS AND NRAS” (CHUGAI SEIYAKU KABUSHIKI KAISHA, priority 2022, published 2025).
# Columns and labels:
# [1] = target: GDP-bound NRAS wild-type protein (Homo sapiens, UniProt P01111); test: Binding to NRAS by surface plasmon resonance (SPR), Single Cycle Kinetics; settings: KD ratio NRAS/KRAS, class symbols
# [2] = target: GDP-bound HRAS wild-type protein (Homo sapiens, UniProt P01112); test: Binding to HRAS by surface plasmon resonance (SPR), Single Cycle Kinetics; settings: KD ratio HRAS/KRAS, class symbols
# Sequence of GDP-bound HRAS wild-type protein (P01112 whole entry): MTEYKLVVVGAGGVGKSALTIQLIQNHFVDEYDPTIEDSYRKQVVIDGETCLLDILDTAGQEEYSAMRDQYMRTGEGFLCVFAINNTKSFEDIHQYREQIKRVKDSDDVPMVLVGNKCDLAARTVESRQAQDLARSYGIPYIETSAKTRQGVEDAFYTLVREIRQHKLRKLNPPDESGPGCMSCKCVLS
# Sequence of GDP-bound NRAS wild-type protein (P01111 whole entry): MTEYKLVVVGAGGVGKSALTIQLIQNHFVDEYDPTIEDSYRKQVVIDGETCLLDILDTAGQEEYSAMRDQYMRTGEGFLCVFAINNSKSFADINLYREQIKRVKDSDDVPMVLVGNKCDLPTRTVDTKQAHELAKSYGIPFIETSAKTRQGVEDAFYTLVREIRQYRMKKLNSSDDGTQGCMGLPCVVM
SMILES,NRAS/KRAS (ratio of KD value with respect to GDP-bound NRAS wild-type protein to KD value with respect to KRAS) [1],HRAS/KRAS (ratio of KD value with respect to GDP-bound HRAS wild-type protein to KD value with respect to KRAS) [2]
CCC[C@H]1C(=O)N[C@@H]([C@@H](C)CC)C(=O)N(C2CC2)CC(=O)N(C)[C@H]2C/C=C\CCN(C2=O)[C@@H](Cc2ccc(C)cc2)C(=O)N(C)CC(=O)N[C@@H](CCc2cc(F)c(C(F)(F)F)c(F)c2)C(=O)N2C[C@H](OCC)C[C@H]2C(=O)NC2(CC(C)(C)C2)C(=O)N(C)[C@@H](C(CC)CC)C(=O)N(C)[C@H](C(=O)N(C)C)CC(=O)N1C [PP2560],AA (a compound having 20 or more is denoted as AA),A (a compound having 10 or more and less than 20 is denoted as A)
CCC[C@H]1C(=O)N[C@@H]([C@@H](C)CC)C(=O)N(C2CC2)CC(=O)N(C)[C@H]2C/C=C\CCN(C2=O)[C@@H](Cc2ccc(C)cc2)C(=O)N(C)CC(=O)N[C@@H](CCc2ccc(Cl)c(Cl)c2)C(=O)N2C[C@H](OCC)C[C@H]2C(=O)NC2(CC(C)(C)C2)C(=O)N(C)[C@@H](C(CC)CC)C(=O)N(C)[C@H](C(=O)N(C)C)CC(=O)N1C [PP2561],AA (a compound having 20 or more is denoted as AA),A (a compound having 10 or more and less than 20 is denoted as A)
CCO[C@@H]1C[C@H]2C(=O)NC3(CC(C)(C)C3)C(=O)N(C)[C@@H](C3CCCC3)C(=O)N(C)[C@H](C(=O)N(C)C)CC(=O)N(C)[C@@H](COC)C(=O)N[C@@H]([C@@H](C)CC)C(=O)N(C3CC3)CC(=O)N(C)[C@H]3C/C=C\CCN(C3=O)[C@@H](CC3CCCCC3)C(=O)N(C)CC(=O)N[C@@H](CCc3cc(F)c(C(F)(F)F)c(F)c3)C(=O)N2C1 [PP2562],B (a compound having 3 or more and less than 10 is denoted as B),B (a compound having 3 or more and less than 10 is denoted as B)
CCO[C@@H]1C[C@H]2C(=O)NC3(CC(C)(C)C3)C(=O)N(C)[C@@H](C3CCCC3)C(=O)N(C)[C@H](C(=O)N(C)C)CC(=O)N(C)[C@@H](COC)C(=O)N[C@@H]([C@@H](C)CC)C(=O)N(C3CC3)CC(=O)N(C)[C@H]3C/C=C\CCN(C3=O)[C@@H](CC3CCCCC3)C(=O)N(C)CC(=O)N[C@@H](CCc3ccc(Cl)c(Cl)c3)C(=O)N2C1 [PP2563],A (a compound having 10 or more and less than 20 is denoted as A),A (a compound having 10 or more and less than 20 is denoted as A)
CCO[C@@H]1C[C@H]2C(=O)NC3(CC(C)(C)C3)C(=O)N(C)[C@@H](C(CC)CC)C(=O)N(C)[C@H](C(=O)N(C)C)CC(=O)N(C)[C@@H](COC)C(=O)N[C@@H]([C@@H](C)CC)C(=O)N(C3CC3)CC(=O)N(C)[C@H]3C/C=C\CCN(C3=O)[C@@H](CC3CCCCC3)C(=O)N(C)CC(=O)N[C@@H](CCc3cc(F)c(C(F)(F)F)c(F)c3)C(=O)N2C1 [PP2564],A (a compound having 10 or more and less than 20 is denoted as A),A (a compound having 10 or more and less than 20 is denoted as A)
CCC[C@H]1C(=O)N[C@@H]([C@@H](C)CC)C(=O)N(C2CC2)CC(=O)N(C)[C@H]2C/C=C\CCN(C2=O)[C@@H](CC2CCC(F)(F)CC2)C(=O)N(C)CC(=O)N[C@@H](CCc2cc(F)c(C(F)(F)F)c(F)c2)C(=O)N2C[C@H](OCC)C[C@H]2C(=O)NC2(CC(C)(C)C2)C(=O)N(C)[C@@H](C2CCCC2)C(=O)N(C)[C@H](C(=O)N(C)C)CC(=O)N1C [PP2566],A (a compound having 10 or more and less than 20 is denoted as A),B (a compound having 3 or more and less than 10 is denoted as B)
CCC[C@H]1C(=O)N[C@@H]([C@@H](C)CC)C(=O)N(C2CC2)CC(=O)N(C)[C@H]2C/C=C\CCN(C2=O)[C@@H](CC2CCC(F)(F)CC2)C(=O)N(C)CC(=O)N[C@@H](CCc2ccc(Cl)c(Cl)c2)C(=O)N2C[C@H](OCC)C[C@H]2C(=O)NC2(CC(C)(C)C2)C(=O)N(C)[C@@H](C2CCCC2)C(=O)N(C)[C@H](C(=O)N(C)C)CC(=O)N1C [PP2567],A (a compound having 10 or more and less than 20 is denoted as A),A (a compound having 10 or more and less than 20 is denoted as A)
CCO[C@@H]1C[C@H]2C(=O)NC3(CC(C)(C)C3)C(=O)N(C)[C@@H](C(CC)CC)C(=O)N(C)[C@H](C(=O)N(C)C)CC(=O)N(C)[C@@H](COC)C(=O)N[C@@H]([C@@H](C)CC)C(=O)N(C3CC3)CC(=O)N(C)[C@H]3C/C=C\CCN(C3=O)[C@@H](CC3CCC(F)(F)CC3)C(=O)N(C)CC(=O)N[C@@H](CCc3cc(F)c(C(F)(F)F)c(F)c3)C(=O)N2C1 [PP2568],A (a compound having 10 or more and less than 20 is denoted as A),B (a compound having 3 or more and less than 10 is denoted as B)
CCO[C@@H]1C[C@H]2C(=O)NC3(CC(C)(C)C3)C(=O)N(C)[C@@H](C(CC)CC)C(=O)N(C)[C@H](C(=O)N(C)C)CC(=O)N(C)[C@@H](COC)C(=O)N[C@@H]([C@@H](C)CC)C(=O)N(C3CC3)CC(=O)N(C)[C@H]3C/C=C\CCN(C3=O)[C@@H](CC3CCC(F)(F)CC3)C(=O)N(C)CC(=O)N[C@@H](CCc3ccc(Cl)c(Cl)c3)C(=O)N2C1 [PP2569],AA (a compound having 20 or more is denoted as AA),A (a compound having 10 or more and less than 20 is denoted as A)
CCC[C@H]1C(=O)N[C@@H]([C@@H](C)CC)C(=O)N(C2CC2)CC(=O)N(C)[C@H]2C/C=C\CCN(C2=O)[C@@H](Cc2ccc(C)cc2)C(=O)N(C)CC(=O)N[C@@H](CCc2cc(F)c(C(F)(F)F)c(F)c2)C(=O)N2C[C@H](OC(C)C)C[C@H]2C(=O)NC2(CC(C)(C)C2)C(=O)N(C)[C@@H](C2CCCC2)C(=O)N(C)[C@H](C(=O)N(C)C)CC(=O)N1C [PP2570],A (a compound having 10 or more and less than 20 is denoted as A),A (a compound having 10 or more and less than 20 is denoted as A)
CCC[C@H]1C(=O)N[C@@H]([C@@H](C)CC)C(=O)N(C2CC2)CC(=O)N(C)[C@H]2C/C=C\CCN(C2=O)[C@@H](Cc2ccc(C)cc2)C(=O)N(C)CC(=O)N[C@@H](CCc2ccc(Cl)c(Cl)c2)C(=O)N2C[C@H](OC(C)C)C[C@H]2C(=O)NC2(CC(C)(C)C2)C(=O)N(C)[C@@H](C2CCCC2)C(=O)N(C)[C@H](C(=O)N(C)C)CC(=O)N1C [PP2571],A (a compound having 10 or more and less than 20 is denoted as A),A (a compound having 10 or more and less than 20 is denoted as A)
CCC(CC)[C@H]1C(=O)N(C)[C@H](C(=O)N(C)C)CC(=O)N(C)[C@@H](COC)C(=O)N[C@@H]([C@@H](C)CC)C(=O)N(C2CC2)CC(=O)N(C)[C@H]2C/C=C\CCN(C2=O)[C@@H](Cc2ccc(C)cc2)C(=O)N(C)CC(=O)N[C@@H](CCc2cc(F)c(C(F)(F)F)c(F)c2)C(=O)N2C[C@H](OC(C)C)C[C@H]2C(=O)NC2(CC(C)(C)C2)C(=O)N1C [PP2572],A (a compound having 10 or more and less than 20 is denoted as A),A (a compound having 10 or more and less than 20 is denoted as A)
CCO[C@@H]1C[C@H]2C(=O)NC3(CC(C)(C)C3)C(=O)N(C)[C@@H](C3CCCC3)C(=O)N(C)[C@H](C(=O)N3CCCCC3)CC(=O)N(C)[C@H]3CCC/C=C/c4ccc(cc4)C[C@@H](C(=O)N(C)CC(=O)N[C@@H](CCc4cc(F)c(C(F)(F)F)c(F)c4)C(=O)N2C1)N1CC/C=C\C[C@@H](C1=O)N(C)C(=O)CN(C)C(=O)[C@H]([C@@H](C)CC)NC3=O [PP2573],A (a compound having 10 or more and less than 20 is denoted as A),A (a compound having 10 or more and less than 20 is denoted as A)
"CCO[C@@H]1C[C@H]2C(=O)NC3(CC(C)(C)C3)C(=O)N(C)[C@@H](C3CCCC3)C(=O)N(C)[C@H](C(=O)N3CCCC3)CC(=O)N(C)[C@H]3CCC/C=C/c4ccc(cc4)C[C@@H](C(=O)N(C)CC(=O)N[C@@H](CCc4cc(F)c(C(F)(F)F)c(F)c4)C(=O)N2C1)N1CC/C=C\C[C@@H](C1=O)N(C)C(=O)CN(C)C(=O)[C@H]([C@@H](C)CC)NC3=O [PP2574, (1S,7S,11R,13S,19S,22S,26S,29S,35S,37Z,47E)-19-cyclopentyl-7-[2-[3,5-difluoro-4-(trifluoromethyl)phenyl]ethyl]-11-ethoxy-3,3′,3′,18,21,25,31,34-octamethyl-29-[(1S)-1-methylpropyl]-22-(pyrrolidine-1-carbonyl)spiro[3,6,9,15,18,21,25,28,31,34,41-undecazapentacyclo[24.15.10.2^43,46.1^35,41.0^9,13]tetrapentaconta-37,43(53),44,46(52),47-pentaene-16,1′-cyclobutane]-2,5,8,14,17,20,24,27,30,33,54-undecone]",A (a compound having 10 or more and less than 20 is denoted as A),A (a compound having 10 or more and less than 20 is denoted as A)
